Where two headings read alike, the source gives them in different places.
Tests used:
[1] = test system: D-2 dopamine; details: background; cited from earlier work
[2] = test system: lipoidal amine induced arthritis; assay: Lipoidal amine induced polyarthritis (hind paw volume and weight); format: in vivo, rat (Lewis); details: Rattus norvegicus
Protocol: Lipoidal amine induced polyarthritis is an animal arthritis model originally described by Chang, Y., et al. in Arthritis and Rheumatism 23:62-71 (1980). The lipoidal amine induced polyarthritis results from injection of N,N-dioctadecyl-N^1,N-bis(2-hydroxyethyl) propanediamine (7.5 mg/kg Lewis rat (220-225 g)), which is suspended in oil, intradermally at the base of the tail.

[3] = test system: α adrenergic receptors; details: background; cited from earlier work
[4] = test system: delayed type hypersensitivity (picryl chloride induced foot pad swelling); assay: Murine delayed type hypersensitivity (DTH) response, picryl chloride; format: in vivo, mouse (Balb/c)
Protocol: The activity of ergoline compounds was also evaluated in a murine delayed-type hypersensitivity (DTH) assay. The DTH assay was performed in substantial accordance with the method set forth in Example 1. Briefly, mice were sensitized by topical administration of picryl chloride on day 1 of the assay. On day 4 paw size was determined and recorded and the paw was then challenged with picryl chloride. The challenged paw was remeasured on day 5 to quantitate the DTH response via the increase in paw size.
Male Balb/c mice (Charles River) weighing 20 to 25 g were used in all DTH studies. When adrenalectomized studies were carried out, sham surgery and adrenalectomized mice were obtained from the vendor. Animals were maintained on a 12:12 hour light:dark cycle. Mice were allowed ad lib access for food (Purina lab chow) and water (normal saline for adrenalectomized animals).
A DTH response was assessed by measuring the degree of rear foot pad swelling induced by picryl chloride. On day 0, mice were sensitized with 100 μl of 5% picryl chloride (in ethanol), which was applied to a shaved abdomen. Negative control groups were shaved but not sensitized. On day 3, mice were anesthetized with methoxyflurane, and the baseline rear foot pad thickness was measured with a micrometer (Mitutoyo) in μ, and was recorded in duplicate. Fifty μl of picryl chloride was then applied to each pad with a pipet (Rainen) while the animal was unconscious. The negative controls also received picryl chloride at this point to control for primary irritancy. Twenty-four hours later, the mice were sacrificed by CO2 asphyxiation and each rear foot pad was again measured in duplicate, and any evidence of foot pad swelling was calculated. The mean rear foot swelling change of both pads for each animal from days 3 to 4 was used as the index of immune function in the DTH assay.
Unless otherwise stated all animals were given four subcutaneous doses of test compound just prior to picryl chloride sensitization on day 0, on day 1 and day 2, and just prior to picryl chloride challenge on day 3. In a few experiments, compounds were administered via oral or intraperitoneal routes. All drugs were delivered as suspensions in 1% carboxy-methylcellulose (also contained 0.8% NaCl, 1% polysorbate-80, 1.4% benzyl alcohol). Carboxymethyl-cellulose (1%) was used in control injections.

[5] = test system: Parkinsonism; details: background; cited from earlier work
[6] = test system: carrageenan induced paw swelling; assay: Carrageenan edema model (acute paw inflammation); format: in vivo, rat (Lewis)
[7] = test system: 5-HT induced paw swelling; assay: Serotonin (5-HT) induced acute paw inflammation; format: in vivo, rat (Lewis); details: FIG. 2
Protocol: In one such model, the acute paw inflammation model, rats were treated with test compounds one hour prior to plantar injection of a 50 μl volume of a phlogistic. Animals were sacrificed and paw weights were determined at a prescribed time interval following the plantar injections. When 1% carrageenan was used as the phlogistic, the time interval between injection and sacrifice was 3 hours. When serotonin (5-hydroxytryptamine (5-HT)) was used, as the phlogistic agent the time interval was one hour. When substance P was used, the time interval was 30 minutes. The acute paw inflammation model is described in more detail in Example 3.
Male Lewis rats (Charles River or Harlan Sprague Dawley) weighing 180 to 250 g were used in all acute inflammatory studies. Animals were maintained on a 12:12 hour light:dark cycle and were allowed ad lib access for food (Purina lab chow) and water. Experimental groups consisted of 5 or 6 rats.
Acute paw swelling was induced by the intraplantar injection of phlogistic agents into the left hind paw, with the uninjected right hind paw serving as the comparative control. One hour after dosing with test compound, 50 μl of serotonin (Sigma; 0.005 to 0.2 mg/ml in normal saline) or substance P (Sigma; 0.01 or 0.05 mg/ml in 10% thiorphan in normal saline) or carrageenan (Marine Colloidal or Sigma Type IV; 1% in normal saline) were injected under the skin of the left hind paw, while the animal was restrained in a plastic cone. Negative controls were given 50 μl intradermal injections of normal saline (serotonin or carrageenan assays) or 10% thiorphan (substance P assays) into the left hind paw. One hour following injection of serotonin, or 30 minutes following injection of substance P, or 180 minutes following injection of carrageenan, the animals were sacrificed by CO2 asphyxiation. The right and left hind paws were cut just proximal to the tibiotarsal joint and weighed. The difference in weight between an individual animal's left and right paws were used as an indicator of tissue swelling.
As indicated above, test compounds are administered as a one hour pretreatment. In one series of experiments, 24 hour and 48 hour drug pretreatment periods were used. Test compounds were dosed intraperitoneally as a suspension in 1% carboxymethylcellulose.

[8] = Table 1, single oral dose 0.3 mg/kg
[9] = Table 1, single oral dose 1.0 mg/kg
[10] = Table 1, single oral dose 3.0 mg/kg
[11] = Table 1, single oral dose 10.0 mg/kg
[12] = Table 2, single oral dose 0.01 mg/kg
[13] = Table 2, single oral dose 0.03 mg/kg
[14] = Table 2, single oral dose 0.1 mg/kg
[15] = Table 2, single oral dose 0.3 mg/kg

In the case of `CCCN1C[C@H](CSC)C[C@@H]2c3cccc4[nH]cc(c34)C[C@H]21` [Compound 2], the “D-2 dopamine agonist activity” value [1] is given as “D-2 dopamine agonists”, the minimal effective dose ([2]; read-out: dosage giving statistically significant decrease in paw volume, FIG. 1 Panel A) is given as no less than 3 mg/kg and the minimal effective dose ([2]; read-out: dosage giving statistically significant decrease in paw weight, FIG. 1 Panel B) is given as no less than 3 mg/kg. The “action at α adrenergic receptors” value [3] was “act at α adrenergic receptors”, the “reduction of paw swelling (DTH)” value ([4]; 1 mg/kg) was “significantly reduced paw swelling” and the “reduction of paw swelling (DTH)” value ([4]; 3 mg/kg) was “significantly reduced paw swelling”. The “reduction of paw swelling (DTH)” value ([4]; 10 mg/kg) was “significantly reduced paw swelling”, the “effect on symptoms of Parkinsonism” value [5] was “effective in the treatment of some symptoms of Parkinsonism” and the “% Inhibition” value [6, 8] was 60%. For the same compound, the “Paw Weight Difference” value [6, 8] was 0.290 ± 0.028 g, the “% Inhibition” value [6, 9] was 60% and the “Paw Weight Difference” value [6, 9] was 0.295 ± 0.019 g. The “% Inhibition” value [6, 10] was 60%, the “Paw Weight Difference” value [6, 10] was 0.292 ± 0.017 g and the “% Inhibition” value [6, 11] was 60%. The “Paw Weight Difference” value [6, 11] was 0.293 ± 0.018 g, the “% Inhibition” value [6, 12] was 1% and the “Paw Weight Difference” value [6, 12] was 0.820 ± 0.033 g. The “% Inhibition” value [6, 13] was 0%, the “Paw Weight Difference” value [6, 13] was 1.009 ± 0.056 g and the “% Inhibition” value [6, 14] was 11%. The “Paw Weight Difference” value [6, 14] was 0.751 ± 0.045 g, the “% Inhibition” value [6, 15] was 63% and the “Paw Weight Difference” value [6, 15] was 0.313 ± 0.045 g. The anti-inflammatory properties ([6]; Tables 1 and 2) was “significant anti-inflammatory properties” and the “effect on 5-HT induced paw swelling” value [7] was “diminish 5-HT induced paw swelling”.

From patent US5416090A, “Method of treating inflammation” (priority 1992, dated 1995)
